In patent US8791046B2, “Crystalline modification of fipronil” (BASF SE, priority 2006, dated 2014):

What was measured:
[1] = Solubility and dissolution rate in solvents; assay type: physicochemical; details: in most solvents
[2] = Stability of the acetone solvate crystal form at ambient conditions; assay type: physicochemical; details: co-crystallized acetone solvent is volatile at ambient conditions

fipronil [crystalline modification IV]
dissolution rate [1]: remarkable high | solubility [1]: remarkable high | stability of the crystalline modification [2]: remarkable stability
